Test results as given in patent publication US8288423B2, “FXa inhibitors with cyclic amidines as P4 subunit, processes for their preparations, and pharmaceutical compositions and derivatives thereof” (Legochem Bioscience Ltd., priority 2007, dated 2012).
Converted amounts (≈) assume the structure as drawn. Read-outs that look alike come from different tables or passages of the source.

B1: antistasin (protein, UniProt P15358 18-136, looked up)
Antistasin: QGPFGPGCEEAGCPEGSACNIITDRCTCSGVRCRMHCPHGFQRSRYGCEFCKCRLEPMKATCDISECPEGMMCSRLTNKCDCKIDINCRKTCPNGLKRDKLGCEYCECRPKRKLIPRLS

Key:
plasma = assay: Measurement of aPTT (activated partial thromboplastin time) in plasma; type: biochemical; parameters: unit not given here; details: STA-PTT, CaCl2, 37° C., unit not given
Description: The effect of oxazolidinone derivatives with cyclic amidines represented by Chemical Formula (1) according to the invention on blood coagulation was compared by measuring PT (prothrombin time) and aPTT (activated Partial Thromboplastin Time). The procedure of measurement is described below. A solution (5 μL) of the oxazolidinone derivative with cyclic amidine group represented by Chemical Formula (1) according to the invention (in a various concentration gradient, 5% DMSO solution) was added to the plasma ([…]), and the reaction was carried out at 37° C. for 2 minutes. STA-PTT (Diagnostica Stago) (50 μL) was then added thereto. After the reaction at 37° C. for additional 5 minutes, 25 mM CaCl2 (50 μL) was added thereto, and the duration for plasma coagulation was measured. The duration for plasma coagulation was determined as the point when the absorbance at 340 nm reaches 0.1.

[1] = Determination of aqueous solubility; type: physicochemical; details: aqueous with cosolvent or surfactant or cyclodextrin, kinetic from dmso stock; 100 mM potassium phosphate buffer pH 7.4, 5% DMSO, final concentration 500 μM, ambient temperature 90 minutes
Description: The plate was agitated at ambient temperature for 90 minutes with a rate of 225 rpm. After agitation, the content of the plate was filtered with application of pressure. The filtrate (160 μL) was individually transferred to a uv-96 well plate (Costar), and mixed with 40 μL of acetonitrile, and then agitated at ambient temperature for 10 minutes with a rate of 225 rpm. By means of a plate reader (Molecular Devices, Spectramax 190), absorbances at the wavelengths of 280, 300, 320, 340, 360 and 800 nm were measured. As a reference solution, employed was 100 mM potassium phosphate buffer (pH 7.4) containing 20% acetonitrile added by 10 mM DMSO solution (8 μL).

factor Xa [2] = target: T1, factor Xa (Homo sapiens, UniProt P00742); assay: Inhibiting activity of factor Xa inhibitor (chromogenic substrate S-2765); type: biochemical; details: calculated from IC50 by Equation 1, Km 125 μM; S-2765 substrate, pH 7.8, 37° C.; read-out: Ki (nM), factor Xa inhibition constant
T1 construct: purchased Enzyme Research Laboratories
Description: Relative rate of hydrolysis (as compared to control group without inhibition) was plotted versus logarithm of the concentration of the oxazolidinone derivative with a cyclic amidine represented by Chemical Formula (1) according to the invention, to obtain the concentration of the inhibitor for 50% decrease in the rate of hydrolysis of the substrate.
The inhibition constant can be obtained by spectrophotometry whereby the color development is determined as a function of time, after being reacted with a specific substrate which develops color upon hydrolysis caused by action of factor Xa.
For the inhibitor solution, the inhibitor compound according to the present invention was diluted with dimethylsulfoxide (DMSO) in 10 mM, and then further diluted with third-distilled water (finally 10% DMSO solution), and the solution (10 μL) was added to each well. […] The substrate solution (20 μL) thus prepared was added to each well.
Kinetic analysis of the reaction was performed by a kinetic plate reader (Molecular Devices, Spectramax 190) at 37° C. for 20 minutes.
Relative rate of hydrolysis (compared to control group without inhibition) versus logarithm of the oxazolidinone derivative with a cyclic amidine group (Chemical Formula I) was plotted to obtain the concentration of the inhibitor to decrease the rate of hydrolysis of the substrate by 50%. GraFit (version 5.0.12) program for statistical process purchased from Erithacus Software was employed.
When inhibition constant Ki is calculated, it can be calculated according to Equation (1).

thrombus formation = assay: % inhibition against thrombus formation, arteriovenous shunt model in white rats; type: in vivo, white rats (male Sprague Dawley); parameters: concentration or dose not given beside the values; details: orally administered 1 hour before opening of the shunt; 15 minutes circulation; versus control group
Description: 3) Determination of % Inhibition Against Thrombus Formation by Means of Arteriovenous Shunt Model ([…]) in White Rats Antithrombotic effect of the compounds according to the present invention was evaluated by using arteriovenous shunt model in white rats. The animals used were male Sprague Dawleys with the body weight of 200-250 g. For one day before the experiment, the animals were fasted. Five to six animals were used for each test group. The compound of Example was orally administered 1 hour before opening of the shunt. The rats were anesthetized by abdominal administration of Rompun (Bay HealthCare) and Chloral hydrate or urethane in an amount of 12 and 50 mg per kg of the body weight. Into the left carotid artery and right jugular vein of the white rat, a polyethylene(PE)-60 tubing filled with physiological saline was inserted and secured. Both ends of individual PE tubing were connected to a silicone tubing having a length of 5 cm in which a cotton thread have been incorporated diagonally, and the shunt was open to provide circulation for 15 minutes. The shunt was then compressed by using jaws, and the cotton thread was carefully removed and the thrombus generated was weighed. The % inhibition of thrombus formation was calculated by using the weight of thrombus obtained from white rats of the control group to which a solution of oral administration was administered.

Citrated plasma = assay: Measurement of PT (prothrombin time) in citrated plasma; type: biochemical; details: STA-Neoplastine, 37° C., unit not given (2×PT value)
Description: The effect of oxazolidinone derivatives with cyclic amidines represented by Chemical Formula (1) according to the invention on blood coagulation was compared by measuring PT (prothrombin time) and aPTT (activated Partial Thromboplastin Time). The procedure of measurement is described below. Citrated plasma was purchased from Daejeon-Chungnam Blood Institute (located at Daejeon, Korea). A compound solution (5 μL) according to the invention (in a various concentration gradient, 5% DMSO solution) was added to the plasma ([…]), and the reaction was carried out at 37° C. for 5 minutes. STA-Neoplastine (Diagnostica Stago) (100 μL) was then added thereto, and the duration for plasma coagulation was measured. The duration for plasma coagulation is determined as the point when the absorbance at 340 nm reaches 0.1.

plasma protein = assay: Determination of plasma protein binding (ultrafiltration, LC-MS/MS); type: in vitro ADME; details: citrated plasma, 37° C., 60 minutes, Ultracel-10 filter
Description: Citrated plasma was purchased from Daejeon-Chungnam Blood Institute (located at Daejeon, Korea). A compound solution (500 μM in DMSO) (10 μL), according to the invention Was added to the plasma (1 mL), and the reaction was carried out at 37° C. and 120 rpm for 60 minutes. To three wells of Ultracel-10 filter plate (Millipore), the reaction solution was transferred (300 μL each). Then, the plasma solution (70 μL) was taken, and the total concentration of the compound was quantified by means of LC-MS/MS (API3000, ABI). After centrifuging the Ultracel-10 filter plate at 37° C. and 2000×g for 45 minutes, the filtrate was taken to determine the concentration of the compound which was not bound to the plasma protein. Percentage of plasma protein binding was obtained via Equation (2): % Protein binding=(1−concentration of compound in filtrate/concentration of compound in entire solution)×100% Free=100−% Protein binding [Equation 2]

[3] = background art; cited from earlier work
factor Xa [4] = target: T1, factor Xa; details: background art; cited from earlier work

T1 sequence (P00742 235-488 limits assumed): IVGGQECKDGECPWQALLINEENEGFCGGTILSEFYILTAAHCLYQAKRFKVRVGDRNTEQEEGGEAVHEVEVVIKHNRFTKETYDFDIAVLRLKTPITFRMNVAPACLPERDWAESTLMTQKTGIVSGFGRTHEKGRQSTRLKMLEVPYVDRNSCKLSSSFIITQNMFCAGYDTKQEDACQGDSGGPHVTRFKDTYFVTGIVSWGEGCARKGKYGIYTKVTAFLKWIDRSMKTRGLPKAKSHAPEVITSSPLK
T1 sequence (P00742 41-179 partner limits assumed): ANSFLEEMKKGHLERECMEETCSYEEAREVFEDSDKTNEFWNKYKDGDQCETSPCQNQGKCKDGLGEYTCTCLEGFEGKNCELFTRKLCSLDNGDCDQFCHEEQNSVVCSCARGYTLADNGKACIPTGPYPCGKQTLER

Molecule | APTT (plasma) | solubility at 90 min [1] [µM] | Ki (factor Xa [2]) [nM] | % Inhibition (of thrombus formation) (thrombus formation) [%] | PT (Citrated plasma) | Plasma protein binding (% Free) (plasma protein) | solubility [3] | Ki (factor Xa [4]) [nM]
O=C(NC[C@H]1CN(c2ccc(C3=NCCN3)cc2)C(=O)O1)c1ccc(Cl)s1 [Compound 100, 5-chlorothiophene-2-carboxylic acid {(S)-3-[4-(4,5-dihydro-1H-imidazol-2-yl)-phenyl]-2-oxo-oxazolidin-5-ylmethyl}-amide] | 2.29 | 441 (≈ 179 µg/mL) | 47 | 40 | 0.22 | 17 |  | 
CN1CCN=C1c1ccc(N2C[C@H](CNC(=O)c3ccc(Cl)s3)OC2=O)cc1 [Compound 101, 5-chlorothiophene-2-carboxylic acid {(S)-3-[4-(1-methyl-4,5-dihydro-1H-imidazol-2-yl)-phenyl]-2-oxo-oxazolidin-5-ylmethyl}-amide] | 0.22 | 434 (≈ 182 µg/mL) | 2.97 | 2 | 0.05 | 23 |  | 
CCN1CCN=C1c1ccc(N2C[C@H](CNC(=O)c3ccc(Cl)s3)OC2=O)cc1 [Compound 102, 5-chlorothiophene-2-carboxylic acid {(S)-3-[4-(1-ethyl-4,5-dihydro-1H-imidazole-2-yl)-phenyl]-2-oxo-oxazolidin-5-ylmethyl}-amide] | 0.17 | 462 (≈ 200 µg/mL) | 3.43 | 26 | 0.04 | 28 |  | 
CN1CCCN=C1c1ccc(N2C[C@H](CNC(=O)c3ccc(Cl)s3)OC2=O)cc1 [Compound 107, 5-chlorothiophene-2-carboxylic acid {(S)-3-[4-(1-methyl-1,4,5,6-tetrahydropyrimidine-2-yl)-phenyl]-2-oxo-oxazolidin-5-ylmethyl}-amide] | 0.28 | 411 (≈ 178 µg/mL) | 5.7 | 50 | 0.09 | 31 |  | 
O=C(NC[C@H]1CN(c2ccc(N3CCN=C3C3CC3)cc2)C(=O)O1)c1ccc(Cl)s1 [Compound 117] | 0.29 | 484 (≈ 215 µg/mL) | 3.18 | 68 | 0.04 | 17 |  | 
O=C(NC[C@H]1CN(c2ccc(N3CCN=C3c3ccco3)cc2)C(=O)O1)c1ccc(Cl)s1 [Compound 123] | 0.26 | 474 (≈ 223 µg/mL) | 0.39 | 71 | 0.07 | 3 |  | 
CC1=NCCN1c1ccc(N2C[C@H](CNC(=O)c3ccc(Br)s3)OC2=O)cc1 [Compound 138] | 0.16 |  | 2.38 | 27 | 0.04 |  |  | 
O=C(NC[C@H]1CN(c2ccc(N3CCN=C3c3ccco3)cc2)C(=O)O1)c1ccc(Br)s1 [Compound 139] | 0.47 |  | 1.47 | 60 | 0.07 |  |  | 
CCC1=NCCCN1c1ccc(N2C[C@H](CNC(=O)c3ccc(Cl)s3)OC2=O)cc1 [Compound 142] | 0.17 |  | 2.52 | 47 | 0.04 |  |  | 
O=C(NC[C@H]1CN(c2ccc(N3CCOCC3=O)cc2)C(=O)O1)c1ccc(Cl)s1 [Rivaroxaban, reference compound] | 0.39 | 50 (≈ 21.8 µg/mL) |  | 83 | 0.09 | 9 | about 8 mg/L | 
tick anticoagulant peptide (YNRLCIKPRDWIDECDSNEGGERAYFRNGKGGCDSFWICPEDHTGADYYSSYRDCFNACI; UniProt P17726 1-60, looked up) [TAP] |  |  |  |  |  |  |  | 0.5
B1 |  |  |  |  |  |  |  | 0.05
